Measured values taken from publication PMC12461628, “Tolerogenic antigen-specific vaccine induces VISTA-enriched regulatory T cells and protects against arthritis in DRB1∗04:01 mice” (Molecular Therapy, 2025).

Experiment: IL-17A ELISpot, lymph node cells after DTH
Format: cell-based, mouse
Conditions: ConA 1 μg/mL, 48 h, 37°C
Procedure: For T cell recall assays, 1 × 10^6 lymph node cells per/well were plated in anti-IL17A (TC11-18H10.1, 5 μL, Mabtech)-coated plates (Merck Millipore, #MSIPS4W10), stimulated with denatured bCOL2 (30 μg/mL), and incubated for 48 h at 37°C. Positive controls consisted of lymph node cells stimulated with Concanavalin A (ConA; 1 μg/mL, Sigma), while negative controls comprised unstimulated cells in complete medium only. Bound IL-17A was detected with anti-IL17A (TC11-8H4, 1 μg/mL, Mabtech) followed by streptavidin-conjugated alkaline phosphatase. The spots were developed using the substrate BCIP/Nitroblue Tetrazolium (Sigma). Scanned wells (ImmunoScan) were analyzed with ImmunoSpot software (Cellular Technology).

Substance: Concanavalin A [ConA]
- IL-17A ELISpot signal, positive control: exceeds 600 SFC/10^6 cells
